{
  "source": "patent US7402575B2",
  "about": "“Methods of treating inflammation” (priority 2003, dated 2008)",
  "key": {"E. coli sepsis in dogs": {"test_system": "E. coli sepsis in dogs", "test": "Pretreatment Study: TAC given before E. coli sepsis, hemodynamics", "format": "in vivo, dog", "details": "for Arterial pH / HR / Hct / Pwp / SVR: mean±SE, n=6", "method": "In all of the studies outlined, the animals were randomized into treatment and nontreatment placebo groups (see below). The E. coli model used in these studies was identical to that previously described (6). Sepsis was induced by the intravenous infusion of 10^10 colony forming units of live E. coli (designation 011:B4). The bacteria were suspended in normal saline solution and were given over 0.5 hour. A constant infusion of approximately 5×10^9 colony forming units/hour of E. coli was then maintained for the remainder of the experiment.\nThe animals (16-24 kg) were initially anesthetized with thiopental sodium (20 mg/kg, intravenously) and constantly infused with sufentanil citrate (1 ug/min) and midazolam (5 ug/kg/min) (33). Drug rates were adjusted as required to abolish the palpebral reflex. The animals were placed in the supine position; the trachea was intubated with an endotracheal tube; and the lungs were mechanically ventilated at a tidal volume of 20 ml/kg. The ventilator rate was initially set to maintain blood pH at approximately 7.35 and was increased as necessary to reverse the metabolic acidosis that developed over the course of the study. Approximately 100% oxygen was inspired, so that hypoxemia would not affect the results of the study.\nUnder sterile conditions, the right jugular vein was percutaneously cannulated with an introducer (Arrow International, Reading, Pa.). A thermister tipped catheter was advanced from the jugular vein into the pulmonary artery to measure mean pulmonary arterial pressure (Ppa), mean pulmonary capillary wedge pressure (Pwp), mean right atrial pressure (Pra), thermodilution cardiac output (CO, Columbus Instruments, OH), and to obtain mixed venous oxygen blood samples. Another introducer was placed into the left jugular vein for administration of intravenous saline solution and the treatment or placebo drug (see below). A polyethylene catheter was also percutaneously placed into the femoral artery to measure mean blood pressure (MAP), and to obtain samples of blood for blood gas analysis, blood hematocrit (Hct), lactate concentrations, and blood cultures in some cases. Lactate was measured by an automated lactate dehydrogenase based assay (34) and was performed only in ETS and LTS because of equipment difficulties in the Pretreatment Study.\nAll catheters were connected to transducers (Cobe Laboratories), were referenced relative to the left atrium and were connected to a chart recorder (Astro-Med, W Warwick, R.I.). Heart rate (HR) was measured from the recorder tracing. Stroke-volume (SV) was calculated as CO/HR. Systemic vascular resistance (SVR) was calculated from [(MAP-Pra)/CO]×80. At each measurement interval (see below), a full set of measurements included MAP, CO, Ppa, Pra, Pwp, Hct, HR, SV, and arterial and mixed venous blood samples.\nIn the analysis, stroke work (SW) was the primary index of cardiac performance and the primary hemodynamic endpoint chosen in the in vivo studies (35,18) (see Discussion). At constant preload, SW reflects both the decreases in afterload and the changes in contractile function that accompany sepsis. SW was determined at approximately the same Pwp at each measurement interval. The baseline Pwp usually averaged ≈8-10 mmHg, and normal saline solution was given as necessary to maintain Pwp constant over the experimental period. SW was calculated from SV (MAP-Pwp).\nPretreatment Study. In the Pretreatment Study, TAC was given before the bacteria were infused. Based on previous studies, it takes approximately 3 to 4 hours of constant bacteremia in order for myocardial depression to develop in this model (6,18). A three to five hour course of bacteremia was therefore considered necessary to determine if TAC could block the decline in SW observed at this interval. […]"}, "[1]": {"test": "Plasma concentrations of TAC in the previous in vivo experiments", "set-up": "species or system dog", "details": "in vivo experiments of Example 2; printed as low 10^−5M range", "method": "The dose of TAC used in the Pretreatment Study was based on calculations previously obtained from the ventricular trabecular experiments in which it was estimated that a plasma concentration of at least 10^−5M would be required to inhibit lysozyme's depressant activity in vivo (49). Based on the molecular weight of TAC (628 MW), the average size of the dog (20 kg), and the estimated distribution space of approximately 50% of total body weight, the dose chosen was 100 mg (Sigma Corp, Canada, Oakville, Ontario) mixed in 200 ml 5% dextrose in water (D5W) that was given intravenously over 0.5 hr. After this initial dose, a dose of 50 mg mixed in 50 ml D5W was continuously infused over each hour for the remainder of the study. The placebo group received an identical amount of D5W over the course of the study.\nIn the present study, the inventors examined whether the administration of chitobiose after 3.5 hrs of E. coli sepsis at a relatively high dose could reverse the myocardial depression that develops in this model."}, "[2]": {"details": "immediately after TAC infusion, before sepsis"}},
  "note": "Entries after “also recorded” stand apart in the source; their conditions may differ.",
  "data": [
    {"smiles": "CC(=O)N[C@H]1[C@H](O[C@H]2[C@H](O)[C@@H](NC(C)=O)C(O)O[C@@H]2CO)O[C@H](CO)[C@@H](O[C@@H]2O[C@H](CO)[C@@H](O)[C@H](O)[C@H]2NC(C)=O)[C@@H]1O", "note": "(some centres unmarked) [TAC, N,N′,N″ triacetylglucosamine]", "values": [
      {"measurement": "CO after pretreatment, before sepsis", "setting": "E. coli sepsis in dogs", "result": "no significant effect on CO"},
      {"measurement": "CO at the 3 h period vs baseline", "setting": "E. coli sepsis in dogs", "result": "CO increased further at the 3 h period"},
      {"measurement": "MAP after treatment, before sepsis", "setting": "E. coli sepsis in dogs", "result": "no effect on baseline MAP"},
      {"measurement": "MAP at the 5 hour period vs nontreated group", "setting": "E. coli sepsis in dogs", "result": "significantly prevented the decrease in MAP; also recorded: significant increases"},
      {"measurement": "SV, change between baseline and 5 h vs nontreated group", "setting": "E. coli sepsis in dogs", "result": "significantly different between the treated and nontreated groups; also recorded: significant increases"},
      {"measurement": "SW, change between baseline and 5 h vs nontreated group", "setting": "E. coli sepsis in dogs", "result": "significantly different between the treated and nontreated groups; also recorded: significant increases"},
      {"measurement": "Arterial pH", "setting": "E. coli sepsis in dogs; 3 h postsepsis", "result": "7.25 ± .001"},
      {"measurement": "HR", "setting": "E. coli sepsis in dogs; 3 h postsepsis", "result": "105 ± 5", "unit": "beats/min"},
      {"measurement": "Hct", "setting": "E. coli sepsis in dogs; 3 h postsepsis", "result": "28 ± 2", "unit": "%"},
      {"measurement": "Pwp", "setting": "E. coli sepsis in dogs; 3 h postsepsis", "result": "9 ± .9 mmHg"},
      {"measurement": "SVR", "setting": "E. coli sepsis in dogs; 3 h postsepsis", "result": "1272 ± 221", "unit": "dynes s cm^−5"},
      {"measurement": "Arterial pH", "setting": "E. coli sepsis in dogs; 5 h postsepsis", "result": "7.22 ± 0.1"},
      {"measurement": "HR", "setting": "E. coli sepsis in dogs; 5 h postsepsis", "result": "90 ± 5", "unit": "beats/min"},
      {"measurement": "Hct", "setting": "E. coli sepsis in dogs; 5 h postsepsis", "result": "26 ± 3", "unit": "%"},
      {"measurement": "Pwp", "setting": "E. coli sepsis in dogs; 5 h postsepsis", "result": "9.6 ± .9 mmHg"},
      {"measurement": "SVR", "setting": "E. coli sepsis in dogs; 5 h postsepsis", "result": "1504 ± 249", "unit": "dynes s cm^−5"},
      {"measurement": "Arterial pH", "setting": "E. coli sepsis in dogs; baseline before TAC", "result": "7.35 ± .01"},
      {"measurement": "HR", "setting": "E. coli sepsis in dogs; baseline before TAC", "result": "74 ± 11", "unit": "beats/min"},
      {"measurement": "Hct", "setting": "E. coli sepsis in dogs; baseline before TAC", "result": "33 ± 1", "unit": "%"},
      {"measurement": "Pwp", "setting": "E. coli sepsis in dogs; baseline before TAC", "result": "9.3 ± .8 mmHg"},
      {"measurement": "SVR", "setting": "E. coli sepsis in dogs; baseline before TAC", "result": "2472 ± 320", "unit": "dynes s cm^−5"},
      {"measurement": "Arterial pH", "setting": "E. coli sepsis in dogs; [2]", "result": "7.28 ± .01"},
      {"measurement": "HR", "setting": "E. coli sepsis in dogs; [2]", "result": "78 ± 5", "unit": "beats/min"},
      {"measurement": "Pwp", "setting": "E. coli sepsis in dogs; [2]", "result": "10.4 ± 1", "unit": "mmHg"},
      {"measurement": "SVR", "setting": "E. coli sepsis in dogs; [2]", "result": "1872 ± 320", "unit": "dynes s cm^−5"},
      {"measurement": "Plasma concentrations of TAC", "setting": "[1]", "result": "~10^−5 M"}
    ]}
  ]
}
